Laboratory results published in patent US9790198B2, “Substituted benzothiophenyl derivatives as GPR40 agonists for the treatment of type II diabetes” (Janssen Pharmaceutica NV, priority 2014, dated 2017).

Target: human GPR40 (Homo sapiens (Human), UniProt O14842)
Assay: GPR40 Calcium Flux Assay
Type: cell-based
Conditions: transfected HEK293 cells stably expressing human GPR40, mean data, read-out: hGPR40 Ca^2+ Assay EC50
Experimental: Compounds were tested in a calcium flux assay using transfected HEK293 cells stably expressing either human GPR40 or rat GPR40. Human GPR40 expressing cells were cultured in DMEM-High Glucose media supplemented with 10% fetal bovine serum, 1×L-Glutamine, 1× Penicillin/Streptomycin and 500 μg/mL G418. Rat GPR40 expressing cells were cultured in DMEM-High Glucose media supplemented with 10% fetal bovine serum and 1 μg/mL puromycin. Cells were plated into poly-D-lysine coated 384-well plates and cultured overnight in a 37° C. humidified tissue culture incubator under 5% CO2/90% O2 atmosphere. On the day of the experiment, the culture media was replaced with assay buffer (HBSS, 20 mM HEPES, 0.1% BSA) and the cells incubated at 37° C. for 1 h. Calcium-sensitive fluorescent dye (Fluo 8 No-Wash Calcium Dye, ABD Bioquest) was then added and the cells incubated for another 30 min at 37° C. followed by 15 min at room temperature while protected from the light. The cell plate and a plate of diluted compounds of Formula (I) were loaded into a fluorescent plate reader that added compounds onto the cells while measuring the fluorescence intensity of each well. The plate reader recorded fluorescence intensity at 1 second intervals for 8 min and provided the data for analysis in an Excel format. EC50 values were calculated using Prism (GraphPad) software.

Chain of human GPR40 (O14842 whole entry): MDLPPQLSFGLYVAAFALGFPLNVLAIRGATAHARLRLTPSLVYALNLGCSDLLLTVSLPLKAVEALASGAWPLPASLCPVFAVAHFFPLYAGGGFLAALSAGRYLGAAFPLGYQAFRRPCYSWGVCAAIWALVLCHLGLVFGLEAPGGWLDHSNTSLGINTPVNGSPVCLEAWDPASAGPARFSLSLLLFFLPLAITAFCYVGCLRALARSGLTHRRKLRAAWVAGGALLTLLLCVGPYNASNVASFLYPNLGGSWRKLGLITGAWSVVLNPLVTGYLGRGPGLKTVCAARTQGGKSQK

Cc1ccccc1-c1csc2ccc(COc3ccc([C@]4(CC(=O)O)C[C@@H](O)C4)cc3)cc12 [Cpd 31, 2-((1r,3r)-3-Hydroxy-1-(4-((3-(2-methylphenyl)benzo[b]thiophen-5-yl)methoxy)phenyl)cyclobutyl)acetic acid]
EC50: 14 nM
